# Reference: paper PMC7959846, “Block of Voltage-Gated Sodium Channels by Atomoxetine in a State- and Use-dependent Manner” (Frontiers in Pharmacology, 2021)
# “And” between values parts separate entries of the source, which are not always exact repeats. Equal values may be shown once.
# Columns and labels:
# hNav1.5 [1] = molecular target: T1, hNav1.5 (Homo sapiens, UniProt Q14524); experiment: Recovery from inactivation (double pulse protocols); type: cell-based; parameters: expressed in transfected cells; host or cells: tsA201 (HEK-293 derivative)
# T1 sequence (Q14524 whole entry): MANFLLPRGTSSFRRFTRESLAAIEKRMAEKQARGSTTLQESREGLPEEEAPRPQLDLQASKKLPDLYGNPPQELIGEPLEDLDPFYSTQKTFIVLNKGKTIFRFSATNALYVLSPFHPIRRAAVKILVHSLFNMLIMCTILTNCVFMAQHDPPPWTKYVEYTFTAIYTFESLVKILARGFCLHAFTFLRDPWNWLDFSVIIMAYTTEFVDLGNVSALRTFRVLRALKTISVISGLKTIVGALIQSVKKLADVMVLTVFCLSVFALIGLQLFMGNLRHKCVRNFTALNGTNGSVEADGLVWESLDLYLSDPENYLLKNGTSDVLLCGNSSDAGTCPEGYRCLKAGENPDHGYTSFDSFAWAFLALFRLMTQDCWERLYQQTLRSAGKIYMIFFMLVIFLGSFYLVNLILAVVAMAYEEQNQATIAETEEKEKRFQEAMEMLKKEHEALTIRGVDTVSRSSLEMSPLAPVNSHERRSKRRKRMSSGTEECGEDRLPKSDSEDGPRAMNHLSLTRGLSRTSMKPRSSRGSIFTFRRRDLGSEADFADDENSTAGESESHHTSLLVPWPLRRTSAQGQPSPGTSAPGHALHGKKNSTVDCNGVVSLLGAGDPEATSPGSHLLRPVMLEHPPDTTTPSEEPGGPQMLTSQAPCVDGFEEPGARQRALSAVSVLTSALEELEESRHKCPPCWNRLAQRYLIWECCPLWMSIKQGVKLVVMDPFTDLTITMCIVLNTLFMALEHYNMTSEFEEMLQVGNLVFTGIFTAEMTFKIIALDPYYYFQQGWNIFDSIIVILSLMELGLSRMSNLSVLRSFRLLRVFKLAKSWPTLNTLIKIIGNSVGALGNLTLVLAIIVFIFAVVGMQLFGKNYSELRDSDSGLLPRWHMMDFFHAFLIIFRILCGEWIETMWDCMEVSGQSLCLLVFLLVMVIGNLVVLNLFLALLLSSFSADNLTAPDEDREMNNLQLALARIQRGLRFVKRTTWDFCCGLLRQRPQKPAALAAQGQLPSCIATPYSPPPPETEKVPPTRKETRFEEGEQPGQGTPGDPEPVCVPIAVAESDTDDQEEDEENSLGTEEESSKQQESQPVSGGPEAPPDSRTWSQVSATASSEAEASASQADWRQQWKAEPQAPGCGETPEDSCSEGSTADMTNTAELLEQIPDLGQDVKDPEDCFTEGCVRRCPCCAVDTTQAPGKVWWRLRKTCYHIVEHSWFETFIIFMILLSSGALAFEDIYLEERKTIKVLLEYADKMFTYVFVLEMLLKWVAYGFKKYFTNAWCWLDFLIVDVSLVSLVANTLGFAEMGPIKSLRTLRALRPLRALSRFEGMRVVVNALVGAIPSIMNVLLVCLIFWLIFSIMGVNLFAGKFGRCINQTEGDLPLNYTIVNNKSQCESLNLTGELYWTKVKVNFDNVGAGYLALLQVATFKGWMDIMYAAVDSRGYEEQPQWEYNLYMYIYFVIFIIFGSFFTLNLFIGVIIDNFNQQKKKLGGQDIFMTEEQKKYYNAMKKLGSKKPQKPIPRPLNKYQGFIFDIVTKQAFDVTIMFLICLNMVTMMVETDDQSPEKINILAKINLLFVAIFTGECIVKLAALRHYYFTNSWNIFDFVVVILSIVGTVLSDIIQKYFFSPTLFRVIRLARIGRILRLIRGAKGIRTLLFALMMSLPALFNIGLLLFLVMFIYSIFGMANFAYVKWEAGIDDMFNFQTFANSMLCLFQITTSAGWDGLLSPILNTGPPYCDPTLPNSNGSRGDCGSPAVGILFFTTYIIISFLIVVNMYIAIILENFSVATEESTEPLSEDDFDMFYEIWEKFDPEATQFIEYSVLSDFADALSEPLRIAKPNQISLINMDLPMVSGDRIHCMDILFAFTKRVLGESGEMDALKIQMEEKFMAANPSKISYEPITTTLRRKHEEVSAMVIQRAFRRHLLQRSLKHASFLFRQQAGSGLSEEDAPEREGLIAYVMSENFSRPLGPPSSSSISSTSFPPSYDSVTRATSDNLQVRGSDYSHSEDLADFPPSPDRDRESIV
# Description: Current amplitudes were normalized to the maximum peak amplitude of INa in the absence and presence of atomoxetine. Recovery time constants were estimated from double or triple exponential fits according to: I/Imax = 1− a1*e^(−t/τ1) −a2*e^(−t/τ2)− a3*e^(−t/τ3) (10)
# Recovery from inactivation was estimated with double pulse protocols using two different durations for the inactivating pulse: 500 ms and 10 s. The test pulse was applied after a variable time spent at the recovery potential of −140 mV (inset Figure 8). Using the short inactivation time of 500 ms, recovery occurred with two time constants. In the absence of atomoxetine about 90% of the channels recovered with a fast time constant (τ 1 = 2.2 ± 0.2 ms), representing recovering from fast inactivation. The remainder recovered with a slower time constant (τ 2 = 37.7 ± 15.6 ms), probably representing recovery from slow inactivation. In the presence of atomoxetine the time constant of the fast component was hardly extended whereas those of the slow time constant was prolongated with little or no change in the relative amount of the two components (Figure 8A, Table 2). […] Using an inactivation time of 10 s, recovery has to be fitted with triple exponential functions, separating the recovery process in a fast, intermediate and a slow component (Figure 8B). In the presence of atomoxetine a profound increase in all time constants resulted. Moreover, the component of the fast time constant decreased and that of the slow component increased in a concentration dependent manner while the amount of the intermediate component stayed almost constant (Table 3).
# FIGURE 8 Recovery from inactivation (A) The relative amount of available channels after increasing duration of recovery at −140 mV is illustrated. Inactivation was performed at −20 mV for 500 ms. The pulse protocol is illustrated by the inset. Interval between individual measurements was 10 s and atomoxetine was applied at 3 and 10 µM. Solid lines represent fits with two exponential functions according to Eq. 10. (B) Otherwise identical protocol as in (A) but with the inactivation time set to 10 s. For data fitting, three exponentials were required. For fit parameters see Table 2, N = 5.
# hNav1.5 [2] = molecular target: T1, hNav1.5; experiment: Interaction with the inactivated state: steady-state concentration-response relationship
# Protocol: Concentration-inhibition curves for the estimation of Kr (IC50 at −140 mV; Figure 2) or Kapp (Figure 6) were fitted to the Hill equation ID/IC= 1/1+([D]/IC50)^n (1) ID and IC are the current amplitudes in the presence and absence of the drug (D). [D] is the concentration of the drug. IC50 represents the concentration of the blocker that causes 50% inhibition and n is the Hill coefficient.
# The affinity to the inactivated state (Ki) was calculated according to ([Bean et al., 1983]) as: 1/Kapp= h/Kr+ (1−h)/Ki (6) Kapp is the apparent affinity estimated at a selected membrane potential at which the amount of non-inactivated channels is given by h (estimated from the corresponding inactivation curve).
# Activations were repeated several times at each concentration to achieve steady-state condition (Figure 6A). The holding potential was chosen individually for each cell to be around half maximal inactivation according to a preceding estimation of availability. Before the test pulse a short recovery (100 ms at −160 mV) was carried out (inset to Figure 6A). From the concentration relationship apparent half maximal effective concentrations (Kapp) were calculated using Eq. 1 (Figure 6B). The affinity for the inactivated channel was then calculated according to Eq. 6 which considers the varying amount of inactivated channels in individual experiments.
# Activations were carried out every 30 s using a holding potential at which the channels were partly inactivated (relative amount of available channels in this experiment: h = 0.81). Immediately before the activations a short recovery (100 m s) at −160 mV was intercalated (inset). Activations were repeated at each condition until a near stable current amplitude was achieved. (B) The apparent IC50 (IC50app) was calculated from the concentration-dependent decline of the current amplitudes. The affinity to the inactivated state was calculated considering the current amount of available channels according to Eq. 6.
# hNav1.5 [3] = molecular target: T1, hNav1.5; experiment: Slow inactivation (10 s conditioning prepulse); conditions: slow inactivation fit (Eq. 5); for V50_1: N = 5
# Protocol: Voltage dependence of activation was calculated in two steps: First, changes in driving force owing to the different test potentials were considered by calculating the conductance g according to g = I/V−ENa (2) Thereafter, normalized data were fitted with a Boltzmann equation of the form: g/gmax= 1/1+e^(V50 − V/k) (3) Voltage dependence of fast inactivation were fit using a Boltzmann equation of the form: I/Imax= 1/1+ e^(V − V50/k) (4) In case of slow inactivation Eq. 4 was extended by a second term and the additional parameter (S) which considers the steady-state level of the incomplete inactivation. I/Imax=(1−S)(a1/1+ e^(V− V501/k1)+ a2/1+ e^(V− V502/k2))+ S (5) Abbreviations used for voltage-dependent parameters: V and V50i are the actual membrane potentials and the potentials at which half maximal current (I)/conductance (g) occur, respectively. ENa indicates the reversal potential which was experimentally determined for each cell. The slope factors are given by ki and the relative amount of the individual terms are represented by ai. Constraint throughout: ∑i=1nai=1 .
# In a next set of experiments, we directly investigated for a possible interaction with the slow inactivated state. To this end, similar experiments as shown in Figure 4 were conducted with the following deviations: the duration of the conditioning prepulse was set to 10 s, and a recovery period (100 ms) at −160 mV was inserted immediately before the test pulse to eliminate or minimize the contribution from fast-inactivation. […] Another hallmark for an interaction with the slow inactivated state is an ongoing increase in inhibition in the potential range (V50_2) where slow inactivation is expected to occur. In order to evaluate this we renormalized the data in the presence of atomoxetine with their respective control (Figure 7B).
# FIGURE 7 Interaction with the slow-inactivated state (A) Infrequent (interval: 30 s) channel activations by step depolarisations to −20 mV were elicited after long lasting (10 s) conditioning prepulses to different potentials (inset). A short (100 ms) recovery period at −160 mV was inserted immediately before the test pulse. Data of normalized peak currents are plotted vs. the prepulse potential. Solid lines are fits according to Eq. 5 for control (open squares) and atomoxetine (3 µM) (filled symbols). […] (B) Plot of renormalized data was obtained by dividing the drug values by control values.
# hNav1.5 [4] = molecular target: T1, hNav1.5; experiment: Voltage dependence of fast inactivation (500 ms prepulse); type: cell-based; parameters: expressed in transfected cells; host or cells: tsA201 (HEK-293 derivative); conditions: for net drug-induced shift of half maximal fast inactivation (signed): N = 5
# Protocol: Constraint throughout: ∑i=1nai=1 .
# For establishing inactivation curves, the membrane potential was stepped to different prepulse potentials (from −140 to −45 mV; increment 5 mV) for 500 ms before channel activations were carried out by depolarizations to −20 mV. For estimation of inactivation parameters, the normalized peak currents were plotted vs. the prepulse potentials. Inactivation curves, characterized by inactivation midpoints and the curve slope were obtained by data fitting using Eq. 4. […] After a second control, atomoxetine was applied at a concentration of 3 and 10 µM (Figure 4A) For final evaluation of drug effects, first the endogenous shift was estimated for each cell individually by the difference between the two controls. […] We used a cell-specific endogenous shift instead of a global shift, as the endogenous shift is highly variable between individual cells.
# FIGURE 4 Voltage dependence of fast inactivation (A) Data of a representative measurement series of normalized peak currents in the absence and presence of atomoxetine are shown. Solid lines represent fits according to Eq. 4.
# hNav1.5 [5] = molecular target: T1, hNav1.5; experiment: Voltage dependence of activation, whole-cell patch clamp; type: cell-based; parameters: expressed in transfected cells; host or cells: tsA201 (HEK-293 derivative)
# hNav1.5 [6] = molecular target: T1, hNav1.5; experiment: Use-dependent interaction (high frequency stimulation trains); conditions: for relative current amplitude of the 50th pulse related to the first pulse: 1 ms test pulse; for remaining current amplitude (use-dependence, pulse duration series): 10 Hz (Figure 9B)
# Protocol: To investigate whether atomoxetine also interacts with the open channel, we first tested for a possible use-dependency. All these experiments were carried out at a holding potential of −140 mV and a test pulse to −20 mV with its duration set to 1 ms. This short activation time was chosen to minimize the time the channels spent in the inactivated state. After establishing stable baseline values using infrequent activations every 5 s (0.2 Hz) a train of high frequency stimulation (1, 3 10 Hz) was started. For evaluation, the peak current amplitude of each pulse was divided by the amplitude of the first response of the high frequency stimulation train. […] For quantification, the remaining current amplitudes of the 50th pulse were related to the first pulse. […] In order to analyse further if atomoxetine prefers an interaction with the open or fast inactivated state, we increased the test pulse duration up to a factor of 20.
# FIGURE 9 Analysis for use-dependence at a pulsing frequency of 10 Hz (A) After establishing stable control responses (activations every 5 s), atomoxetine was preincubated for 20 s before test pulses (1 ms) were applied at a frequency of 10 Hz. […] The amplitudes which were obtained from the high frequency stimulation are related to the first pulse of each train.
# hNav1.5 [7] = molecular target: T1, hNav1.5; experiment: Block development, interaction with the inactivated state: kinetic parameters (double-pulse protocol); conditions: for remaining current at the longest inactivation time: prepulse −20 mV up to 32 s
# Description: The time constant (τ) of block development for the different concentrations of atomoxetine was estimated by single exponential fits of the form: I/Imax = S+ a1*e^(−t/τ1) (7) t denotes the time, a is the fraction of channels which is blocked, and S represents the residual current.
# Association (kon in µM^−1s^−1) and dissociation rates (koff in s^−1) were estimated from the slope and the y-intercept of a linear regression where the inverse of the fast time constants (1/τ) was plotted vs. the drug concentration [D] […] 1/τ= koff+kon*[D] (8) The affinity for the inactivated state (Ki) was calculated according to: Ki= koff/kon (9)
# Instead of this, we employed another double-pulse protocol in order to determine the time dependence of the interaction of atomoxetine with the inactivated state. The experimental scheme consisted of a conditioning prepulse to −20 mV for a variable duration (range: 0.002–32 s), a short recovery for 100 ms at −140 mV, followed by the test pulse to −20 mV (inset to Figure 5A). […] For estimation of rate constants the inverse of the time constants (1/τ) were plotted vs. the concentration of atomoxetine (Figure 5C).
# The pulse protocol (inset) was applied in intervals of 20 s. The peak currents of the test pulse were normalized to the peak amplitude of the prepulse and plotted vs. its duration. Solid lines represent fits of single exponential functions to data obtained for control (open squares) or different concentrations of atomoxetine (B) Data normalized with respect to control (C) The inverse of the time constants of individual cells were plotted vs. the concentration of atomoxetine. […] N = 5.
# hNav1.5 [8] = molecular target: T1, hNav1.5; experiment: Tonic block of hNav1.5 channels (resting state, holding potential −140 mV), whole-cell patch clamp in tsA201 cells; conditions: N = 5
# Protocol: The tsA201 cell line is a derivative of the human embryonic kidney cell line HEK-293 (ATCC#CRL1537, Merck KGaA, Darmstadt, Germany). tsA201 cells were cultured at 37°C in a humidified atmosphere at 95% air and 5% CO2 in MEM (minimum essential medium, Gibco, Eggenstein, Germany) supplemented with 50 U/ml penicillin, 50 μg/ml streptomycin (Gibco), 2 mM L-glutamine (Boehringer, Mannheim, Germany), and 10% fetal calf serum (Gibco). The cells were grown on polyornithine-coated culture dishes to 40% confluency and transfected using the TransFectin LipidReagent kit (Bio-Rad, München, Germany).
# Briefly, tsA201 cells were used for experiments 24–48 h after transfection. Membrane currents were recorded in the whole-cell recording mode using an EPC-9 amplifier and Patchmaster software (v2x73; HEKA, Lambrecht, Germany ([Hamill et al., 1981])). Before recording, cells were rinsed twice with an extracellular standard solution containing (in mM): 140 NaCl, 5 KCl, 1.5 CaCl2, 10 glucose and 12 HEPES; adjusted to a final pH of 7.3. Patch pipettes were drawn from borosilicate glass with tip resistances of about 2 MΩ when filled with (in mM): 125 CsF, 10 NaF, 1 MgCl2, 10 EGTA, 10 HEPES; adjusted to a final pH of 7.2. To improve sealing, tips were briefly dipped into 2% dimethylsilane dissolved in dichloromethane. Unless otherwise stated, cells were held at a holding potential of −140 mV from which channel activation was elicited by brief depolarizing pulses to −20 mV of 5 ms duration. To minimize voltage errors, the series resistance was compensated up to 80%. Cells with currents larger than 6 nA were excluded from evaluation.
# The medium in the dish (1.5 ml) was continuously exchanged using a "global" bath perfusion with the inflow set to 4.5 ml/min and the outflow removing any excess fluid. Reagents were applied locally to the cells by the L/M-SPS-8 superfusion system (List, Darmstadt, Germany). Switching between the 8 channels of the superfusion system was controlled by magnetic valves. The local inlet (tip of an eight-barrelled pipette) was positioned at a distance of 50–100 μm upstream and the local outlet at about 300 μm downstream of the patch pipette. A constant flow rate of control and test solutions (1 ml/min) was achieved by means of a pressure control system (MPCU-3, Lorenz, Göttingen, Germany). The time of solution exchange was estimated from the changes in the liquid junction potential to be about 1 ms. If not otherwise stated, drugs were preapplied for 20 s before starting the experiments.
# Concentration-inhibition curves for the estimation of Kr (IC50 at −140 mV; Figure 2) or Kapp (Figure 6) were fitted to the Hill equation ID/IC= 1/1+([D]/IC50)^n (1) ID and IC are the current amplitudes in the presence and absence of the drug (D). [D] is the concentration of the drug. […]
# F1760C = tested on: F1760C; parameters: method as in Poulin et al., 2014; conditions: anaesthetic binding site; ref Poulin et al., 2014; cited from earlier work
# WCW-mutant = tested on: WCW-mutant; parameters: method as in Poulin et al., 2014; conditions: ref Poulin et al., 2014; cited from earlier work
# hNav1.5 [9] = molecular target: T1, hNav1.5; parameters: expressed in transfected cells; host or cells: tsA201 (HEK-293 derivative); method as in Poulin et al., 2014; conditions: ref Poulin et al., 2014; cited from earlier work
smiles,measurement,setting,value
CNCC[C@@H](Oc1ccccc1C)c1ccccc1 [atomoxetine],τ 1 (%) relative amount of component,"hNav1.5 [1]; 3 µM, inactivation 10 s",39.7 ± 2.2%
same,τ 1 (recovery time constant),"hNav1.5 [1]; 3 µM, inactivation 10 s",5.8 ± 0.7 ms
same,τ 2 (%) relative amount of component,"hNav1.5 [1]; 3 µM, inactivation 10 s",22.7 ± 1.0%
same,τ 2 (recovery time constant),"hNav1.5 [1]; 3 µM, inactivation 10 s",139 ± 37.2 ms
same,τ 3 (recovery time constant),"hNav1.5 [1]; 3 µM, inactivation 10 s","3,524 ± 377 ms"
same,τ 1 (%) relative amount of component,"hNav1.5 [1]; 3 µM, inactivation 500 ms",90.3 ± 2.0%
same,τ 2 (recovery time constant),"hNav1.5 [1]; 3 µM, inactivation 500 ms",191.7 ± 74.2 ms
same,τ 1 (recovery time constant),"hNav1.5 [1]; 3 µM, inactivation 500 ms, recovery at −140 mV",3.1 ± 0.2 ms
same,τ 1 (%) relative amount of component,"hNav1.5 [1]; 10 µM, inactivation 10 s",15.0 ± 1.6%
same,τ 1 (recovery time constant),"hNav1.5 [1]; 10 µM, inactivation 10 s",12.4 ± 0.3 ms
same,τ 2 (%) relative amount of component,"hNav1.5 [1]; 10 µM, inactivation 10 s",17.2 ± 2.9%
same,τ 2 (recovery time constant),"hNav1.5 [1]; 10 µM, inactivation 10 s",417 ± 152 ms
same,τ 3 (recovery time constant),"hNav1.5 [1]; 10 µM, inactivation 10 s","4,859 ± 332 ms"
same,τ 1 (%) relative amount of component,"hNav1.5 [1]; 10 µM, inactivation 500 ms",86.2 ± 1.8%
same,τ 1 (recovery time constant),"hNav1.5 [1]; 10 µM, inactivation 500 ms",4.7 ± 0.3 ms
same,τ 2 (recovery time constant),"hNav1.5 [1]; 10 µM, inactivation 500 ms","1,259 ± 351 ms"
same,IC50,"hNav1.5 [2]; Half-maximal effective concentrations (interaction with inactivated state), different experimental settings, abstract",2000 to 3000 nM
same,Ki,"hNav1.5 [2]; Ki (inactivated state), single experiment of Figure 6B, Eq. 6",1850 nM
same,Ki,"hNav1.5 [2]; affinity for the inactivated state (Ki), calculated from Kapp by Eq. 6, holding potential around half maximal inactivation, N = 5",1590 ± 450 nM
same,IC50,"hNav1.5 [2]; apparent IC50 (IC50app), single experiment of Figure 6B, partly inactivated channels",2270 nM
same,higher affinity for the inactivated state compared to the resting state,hNav1.5 [2]; depending on the applied protocol,about 50 fold
same,V50_2,hNav1.5 [3]; 3 µM,−65.5 ± 2.8 mV
same,a1,hNav1.5 [3]; 3 µM,37.5 ± 18.7%
same,k1,hNav1.5 [3]; 3 µM,5.2 ± 0.4 mV
same,k2,hNav1.5 [3]; 3 µM,31.8 ± 1.9 mV
same,V50_1,hNav1.5 [3]; 3 µM,−101.3 ± 0.3 mV
same,V50_2,hNav1.5 [3]; 10 µM,−102.7 ± 3.9 mV
same,a1,hNav1.5 [3]; 10 µM,71.1 ± 19.7%
same,k1,hNav1.5 [3]; 10 µM,5.9 ± 0.2 mV
same,k2,hNav1.5 [3]; 10 µM,34.2 ± 4.7 mV
same,V50_1,hNav1.5 [3]; 10 µM,−107.7 ± 0.2 mV
same,net shift in positive direction of fast inactivation midpoint,"hNav1.5 [4]; 3 µM atomoxetine, 500 ms prepulse, corrected for endogenous shift",0.3 mV
same,net drug-induced shift of half maximal fast inactivation (signed),hNav1.5 [4]; 3 µM atomoxetine,+0.3 mV
same,negative shift of fast inactivation midpoint (net),"hNav1.5 [4]; 10 µM atomoxetine, 500 ms prepulse, corrected for endogenous shift",0.9 mV
same,net drug-induced shift of half maximal fast inactivation (signed),hNav1.5 [4]; 10 µM atomoxetine,−0.9 mV
same,slope of the activation curve,hNav1.5 [5]; 3 µM atomoxetine,6.6 ± 0.6 mV
same,midpoint of the activation curve (half maximal activation),"hNav1.5 [5]; 3 µM atomoxetine, control −52.6 ± 3.5 mV",−54.5 ± 3.9 mV
same,midpoint of the activation curve,hNav1.5 [5]; 10 µM atomoxetine,−55.5 ± 4.1 mV
same,slope of the activation curve,hNav1.5 [5]; 10 µM atomoxetine,6.9 ± 0.6 mV
same,relative current amplitude of the 50th pulse related to the first pulse,"hNav1.5 [6]; 1 Hz, 1 µM atomoxetine",0.96 ± 0.01
same,relative current amplitude of the 50th pulse related to the first pulse,"hNav1.5 [6]; 1 Hz, 3 µM atomoxetine",0.89 ± 0.05
same,relative current amplitude of the 50th pulse related to the first pulse,"hNav1.5 [6]; 1 Hz, 10 µM atomoxetine",0.69 ± 0.09
same,relative current amplitude of the 50th pulse related to the first pulse,"hNav1.5 [6]; 3 Hz, 1 µM atomoxetine",0.95 ± 0.02
same,relative current amplitude of the 50th pulse related to the first pulse,"hNav1.5 [6]; 3 Hz, 3 µM atomoxetine",0.85 ± 0.07
same,relative current amplitude of the 50th pulse related to the first pulse,"hNav1.5 [6]; 3 Hz, 10 µM atomoxetine",0.61 ± 0.09
same,relative current amplitude of the 50th pulse related to the first pulse,"hNav1.5 [6]; 10 Hz, 3 µM atomoxetine",0.79 ± 0.03
same,relative current amplitude of the 50th pulse related to the first pulse,"hNav1.5 [6]; 10 Hz, 10 µM atomoxetine",0.48 ± 0.07
same,"remaining current amplitude (use-dependence, pulse duration series)","hNav1.5 [6]; activation time 1 ms, 10 µM atomoxetine",0.54 ± 0.03
same,"remaining current amplitude (use-dependence, pulse duration series)","hNav1.5 [6]; activation time 5 ms, 10 µM atomoxetine",0.43 ± 0.03
same,"remaining current amplitude (use-dependence, pulse duration series)","hNav1.5 [6]; activation time 20 ms, 10 µM atomoxetine",0.37 ± 0.09
same,Ki,hNav1.5 [7],2570 nM
same,remaining current at the longest inactivation time,"hNav1.5 [7]; 3 µM atomoxetine, control 70.0 ± 14.0%",32.6 ± 9.8%
same,remaining current at the longest inactivation time,hNav1.5 [7]; 10 µM atomoxetine,11.5 ± 8.0%
same,time constant of block development,"hNav1.5 [7]; 10 µM atomoxetine, single exponential fit, normalized to control",4.3 ± 0.1 s
same,kon,hNav1.5 [7]; read-out: rate constant for association (kon),18500 M⁻¹ s⁻¹
same,koff,hNav1.5 [7]; read-out: rate constant for dissociation (koff),0.047 s⁻¹
same,IC50,"hNav1.5 [8]; half maximal effective concentration (Kr, IC50 at −140 mV; affinity for the resting state), drug preapplied 30 s",~120000 nM and 120000 nM and 119000 nM
same,Hill coefficient,hNav1.5 [8]; tonic block,1.47 ± 0.06
CNCCC(Oc1ccc(C(F)(F)F)cc1)c1ccccc1 (stereo not shown) [fluoxetine],ratio in affinity between F1760C and wildtype,F1760C,about 2 fold
same,ratio for the interaction with the resting state (peak current) vs. open channel (late current),WCW-mutant,3 fold
same,ratio of affinity at holding potential −140 mV (resting state) versus −90 mV,hNav1.5 [9],less than 10 fold
